From patent US5013542A, “Method to inhibit adhesion of disease-causing microorganisms to teeth” (Forsyth Dental Infirmary for Children, priority 1988, dated 1991)
Where no end group is shown, it is not given here.

Assays:
Assay in all cases: Adhesion of radioactively labeled bacteria to treated hydroxyapatite (HA)
Type in all cases: cell-based
Actinomyces viscosus = system: Actinomyces viscosus
Protocol: (§1) PRP-1 and PRP-1(Tl) were investigated for their abilities to promote adhesion of bacteria to HA. Essentially, the method is to treat HA samples with nothing (negative control), saliva (positive control), or the respective proteins or peptides. The excess agent is removed by washing, and suspensions of radioactively labeled bacteria are added to the treated HA. After a suitable time, the excess bacteria are removed by washing and those remaining adsorbed to the HA are counted in a scintillation counter. In the table of results, bacterial adsorption to saliva-treated HA is considered to be 100%, and adsorption to PRP-1 or PRP-1(Tl)-treated HA expressed as a percentage of this reference value. This approach is necessary because of the diverse behaviors of different bacteria.

Streptococcus sanguis = system: Streptococcus sanguis
Protocol: as §1

Bacteroides gingivalis = system: Bacteroides gingivalis
Protocol: as §1

Streptococcus mitis = system: Streptococcus mitis
Protocol: as §1

Streptococcus mutans = system: Streptococcus mutans
Protocol: as §1

[1] = HA treated with the protein/peptide, saliva-treated HA = 100%

PRP-1(T1): residues 1-30, highly acidic phosphoserine-containing amino-terminal segment of PRP-1 obtained by tryptic digestion at ARG(30) (QDLDEDVSQEDVPLVISDGGDSEQFIDEER; also: phosphoserine-containing, positions not given here; UniProt P02810 17-46, looked up, fragment)
PERCENT ADHESION COMPARED TO SALIVA-TREATED HA (Actinomyces viscosus; [1]): 17%
adhesion of organism to treated HA (in words) (Actinomyces viscosus; versus saliva-treated HA): significantly and profoundly depressed
adhesion of organism to treated HA (in words) (Streptococcus sanguis; S. sanguis, versus saliva-treated HA): significantly and profoundly depressed
PERCENT ADHESION COMPARED TO SALIVA-TREATED HA (Streptococcus sanguis; Streptococcus sanguis, HA treated with the protein/peptide, saliva-treated HA = 100%): 4%
adhesion of organism to treated HA (in words) (Bacteroides gingivalis; B. gingivalis, versus saliva-treated HA): significantly and profoundly depressed
PERCENT ADHESION COMPARED TO SALIVA-TREATED HA (Bacteroides gingivalis; Bacteroides gingivalis, HA treated with the protein/peptide, saliva-treated HA = 100%): 20%
PERCENT ADHESION COMPARED TO SALIVA-TREATED HA (Streptococcus mitis; [1]): 26%
adhesion of organism to treated HA (in words) (Streptococcus mitis; versus saliva-treated HA): significantly and profoundly depressed
PERCENT ADHESION COMPARED TO SALIVA-TREATED HA (Streptococcus mutans; [1]): 17%
adhesion of organism to treated HA (in words) (Streptococcus mutans; versus saliva-treated HA): significantly and profoundly depressed
